Experimental data taken from patent US7442802B2, “Cyclooxygenase-2 selective inhibitors, compositions and methods of use” (NitroMed, Inc., priority 2002, dated 2008).
Where two headings read alike, the source gives them in different places.

Columns and labels:
COX-1 = biological target: T1, COX-1 (Homo sapiens, UniProt P23219); experiment: Human COX-1 enzyme activity in human whole blood (A23187-stimulated, thromboxane B2 EIA); type: cell-based; details: for inhibition at 100 µM: read-out: COX-1 Inhibition (% at 100 μM)
T1 construct: endogenous in cells; host or cells: heparinised human whole blood from donors, stimulated with the calcium ionophore A23187
T1 sequence (P23219 24-599): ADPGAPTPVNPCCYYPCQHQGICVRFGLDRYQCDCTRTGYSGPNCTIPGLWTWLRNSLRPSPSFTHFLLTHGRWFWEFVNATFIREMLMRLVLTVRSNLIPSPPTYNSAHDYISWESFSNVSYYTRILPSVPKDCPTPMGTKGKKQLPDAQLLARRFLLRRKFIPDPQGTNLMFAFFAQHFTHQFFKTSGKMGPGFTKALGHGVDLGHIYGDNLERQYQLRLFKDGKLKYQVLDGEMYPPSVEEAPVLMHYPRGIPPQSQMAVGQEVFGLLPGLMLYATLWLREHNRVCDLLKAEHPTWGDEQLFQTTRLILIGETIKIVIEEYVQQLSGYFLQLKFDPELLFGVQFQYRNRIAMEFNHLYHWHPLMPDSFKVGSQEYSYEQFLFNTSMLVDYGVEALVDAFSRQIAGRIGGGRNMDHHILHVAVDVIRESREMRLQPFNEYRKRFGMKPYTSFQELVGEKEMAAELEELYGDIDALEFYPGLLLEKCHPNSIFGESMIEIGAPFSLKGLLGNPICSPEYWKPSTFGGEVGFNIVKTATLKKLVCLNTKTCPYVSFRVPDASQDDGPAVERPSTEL
Description: (§1) The blood was transported to the laboratory on ice packs and used within 1.5 hours of collection. Upon receipt in the laboratory, the blood was allowed to come to room temperature for 15 minutes prior to distribution in 1 mL aliquots per well of 24 well tissue culture plates. […] Test compounds were dissolved in DMSO, at 1000 fold the final desired concentration, and further diluted, as indicated, in DMSO. One μL of each dilution of the test compound was added per well, in duplicate wells; wells not receiving test compound (e.g., basal, background or control wells) received 1 μL DMSO. […] Louis, Mo., Catalogue No. […] Louis, Mo., Catalogue No. […] (Again, basal, background or control wells not stimulated with A23187 received 1 μL of DMSO.) At 5 hours after the addition of the test compound, all incubations were terminated by placement on ice and the addition of 2 mM EGTA (100 μL of 20 mM EGTA, tetrasodium, in PBS (phosphate buffered saline) without Ca^++ and Mg^++, pH 7.2)). […] One hundred μL of plasma was removed from each blood sample and added to 1 mL of methanol in new 15 mL polypropylene centrifuge tubes, vortexed, and stored overnight at -20° C. […] The samples were assayed for thromboxane B2 using EIA kits supplied by Cayman Chemical Co. […] The % inhibition for COX-1 and COX-2 enzyme activity in human whole blood by the test compounds, at the indicated concentrations, are given in Table 1.

COX-2 = biological target: T2, COX-2 (Homo sapiens, UniProt P35354); experiment: Human COX-2 enzyme activity in human whole blood (LPS-induced, thromboxane B2 EIA); type: cell-based; details: for inhibition at 1 µM: read-out: COX-2 Inhibition (% at 1 μM); for inhibition at 10 µM: read-out: COX-2 Inhibition (% at 10 μM)
T2 construct: To induce COX-2, lipopolysaccharide (LPS) from E. coli; endogenous in cells; host or cells: heparinised human whole blood from donors, with COX-2 induced by E. coli LPS
T2 sequence (P35354 18-604): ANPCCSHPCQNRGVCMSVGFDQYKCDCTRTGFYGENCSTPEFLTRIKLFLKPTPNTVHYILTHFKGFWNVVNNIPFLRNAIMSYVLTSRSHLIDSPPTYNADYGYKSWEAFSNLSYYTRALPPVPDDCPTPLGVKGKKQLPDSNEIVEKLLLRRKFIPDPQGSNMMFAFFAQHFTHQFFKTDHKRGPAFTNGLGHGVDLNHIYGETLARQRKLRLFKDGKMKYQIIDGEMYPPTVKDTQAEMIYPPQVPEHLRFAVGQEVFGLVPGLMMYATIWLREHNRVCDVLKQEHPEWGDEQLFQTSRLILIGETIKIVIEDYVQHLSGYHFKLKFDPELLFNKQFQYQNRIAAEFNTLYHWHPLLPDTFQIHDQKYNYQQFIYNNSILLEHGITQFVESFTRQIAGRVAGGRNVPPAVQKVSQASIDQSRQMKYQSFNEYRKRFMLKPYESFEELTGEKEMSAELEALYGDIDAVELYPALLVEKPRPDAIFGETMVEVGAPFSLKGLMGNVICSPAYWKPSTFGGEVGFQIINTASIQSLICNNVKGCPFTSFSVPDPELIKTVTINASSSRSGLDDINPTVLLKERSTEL
Description: as §1

[1] = 100 μM, human whole blood, A23187 stimulation
[2] = 1 μM, human whole blood, LPS induction
[3] = 10 μM, human whole blood, LPS induction

Compound | inhibition at 100 µM (COX-1; [1]) [%] | inhibition at 1 µM (COX-2; [2]) [%] | inhibition at 10 µM (COX-2; [3]) [%] | melting point [°C] | also measured
CS(=O)(=O)c1ccc(-c2[nH]nc(C(=O)CCCO[N+](=O)[O-])c2-c2ccc(C#N)cc2)cc1 [Example 42e, 4-(5-(4-(Methylsulfonyl)phenyl)-3-(4-(nitrooxy)butanoyl)pyrazolyl)benzenecarbonitrile] | 35 | 10 | 55 | 148 to 149 | 
NS(=O)(=O)c1ccc(-c2cc(C(=O)CCCO[N+](=O)[O-])nn2C2CCCCC2)cc1 [Example 43h, 4-(1-Cyclohexyl-3-(4-(nitrooxy)butanoyl)pyrazol-5-yl)benzenesulfonamide] | 50 | 10 | 20 | 45 to 47 | 
NS(=O)(=O)c1ccc(-c2c(-c3ccccc3)noc2COCC(F)(F)C(F)(F)CO[N+](=O)[O-])cc1 [Example 33b, 4-(3-Phenyl-5-((2,2,3,3-tetrafluoro-4-(nitrooxy)butoxy)methyl)isoxazol-4-yl)benzenesulfonamide] | 85 | 90 | 100 | 46 | 
Cc1ccc(-n2nc(C(=O)CCCO[N+](=O)[O-])cc2-c2ccc(S(C)(=O)=O)cc2)cc1 [Example 12e, 1-(1-(4-Methylphenyl)-5-(4-(methylsulfonyl)phenyl)pyrazol-3-yl)-4-(nitrooxy)butan-1-one] | 55 | 70 | 95 | 107 to 109 | 
CS(=O)(=O)c1ccc(-c2cc(C(=O)NCCO[N+](=O)[O-])nn2C2CCCCC2)cc1 [Example 45c, (1-Cyclohexyl-5-(4-(methylsulfonyl)phenyl)pyrazol-3-yl)-N-(2-(nitrooxy)ethyl)carboxamide] |  |  |  | 168 to 170 | 
CS(=O)(=O)c1ccc(-c2cc(/C=C\CCO[N+](=O)[O-])nn2C2CCCCC2)cc1 [Example 4f, 1-(3-((1Z)-4-(Nitrooxy)but-1-enyl)-1-cyclohexylpyrazol-5-yl)-4-(methylsulfonyl)benzene] | 20 | 70 | 95 | 137 to 138 | 
CS(=O)(=O)c1ccc(-c2cc(CO[N+](=O)[O-])nn2C2CCCCCC2)cc1 [Example 2d, 1-(1-Cycloheptyl-3-((nitrooxy)methyl)pyrazol-5-yl)-4-(methylsulfonyl)benzene] | 35 | 60 | 90 | 119 to 120 | 
CS(=O)(=O)c1ccc(-c2cc(C(=O)CCCO[N+](=O)[O-])nn2-c2ccc(Cl)cc2)cc1 [Example 44e, 1-(1-(4-Chlorophenyl)-5-(4-(methylsulfonyl)phenyl)pyrazol-3-yl)-4-(nitrooxy)butan-1-one] | 60 | 30 | 100 | 131 to 132 | 
NS(=O)(=O)c1ccc(-c2c(-c3ccccc3)noc2COCC(F)(F)C(F)(F)C(F)(F)CO[N+](=O)[O-])cc1 [Example 34b, 4-(5-((2,2,3,3,4,4-Hexafluoro-5-(nitrooxy)pentyloxy)methyl)-3-phenylisoxazol-4-yl)benzenesulfonamide] |  |  |  | 38 to 39 | inhibition at 100 µM (COX-1): 75%; inhibition at 1 µM (COX-2): 90%; inhibition at 10 µM (COX-2): 100%
CS(=O)(=O)c1ccc(-c2cc(CCCO[N+](=O)[O-])nn2C2CCCCC2)cc1 [Example 31e, 4-(1-Cyclohexyl-3-(3-(nitrooxy)propyl)pyrazol-5-yl)-1-(methylsulfonyl)benzene] |  |  |  | 77 | 
CS(=O)(=O)c1ccc(-c2cc(CO[N+](=O)[O-])nn2C2CCCCCCC2)cc1 [Example 1h] |  |  |  |  | COX-1 Inhibition (% at 100 μM) (COX-1; [1]): 60%; COX-2 Inhibition (% at 1 μM) (COX-2; [2]): 50%; COX-2 Inhibition (% at 10 μM) (COX-2; [3]): 90%
NS(=O)(=O)c1ccc(-c2c(-c3ccccc3)noc2COCCO[N+](=O)[O-])cc1 [Example 27b] |  |  |  |  | COX-1 Inhibition (% at 100 μM) (COX-1; [1]): 65%; COX-2 Inhibition (% at 1 μM) (COX-2; [2]): 50%; COX-2 Inhibition (% at 10 μM) (COX-2; [3]): 100%
COc1ccc(-n2nc(COCCCO[N+](=O)[O-])cc2-c2ccc(S(C)(=O)=O)cc2)cc1 [Example 39, 4-(1-(4-Methoxyphenyl)-3-((3-(nitrooxy)propoxy)methyl)pyrazol-5-yl)-1-(methylsulfonyl)benzene] | 100 | 85 | 100 |  | 
CS(=O)(=O)c1ccc(-c2cc(C(=O)CCCO)nn2-c2ccc(F)cc2)cc1 [Example 13d, 1-(1-(4-Fluorophenyl)-5-(4-(methylsulfonyl)phenyl)pyrazol-3-yl)-4-hydroxybutan-1-one] | 0 | 25 | 25 |  | 
CS(=O)(=O)c1ccc(-c2cc(/C=C/CO[N+](=O)[O-])nn2C2CCCCC2)cc1 [Example 41, 1-(3-((1E)-3-(Nitrooxy)prop-1-enyl)-1-cyclohexylpyrazol-5-yl)-4-(methylsulfonyl)benzene] | 40 | 0 | 45 |  | 
CS(=O)(=O)c1ccc(-c2cc(CCO[N+](=O)[O-])nn2C2CCCCC2)cc1 [Example 30d, 4-(1-Cyclohexyl-3-(2-(nitrooxy)ethyl)pyrazol-5-yl)-1-(methylsulfonyl)benzene] |  |  |  | 117 | 
CS(=O)(=O)c1ccc(-c2cc(/C=C\CCO[N+](=O)[O-])nn2-c2ccccc2)cc1 [Example 11e, 1-(3-((1Z)-4-(Nitrooxy)but-1-enyl)-1-phenylpyrazol-5-yl)-4-(methylsulfonyl)benzene] | 90 | 95 | 100 |  | 
CS(=O)(=O)c1ccc(-c2cc(COCCCO)nn2-c2ccccc2)cc1 [Example 5d, 4-(3-((3-Hydroxypropoxy)methyl)-1-phenylpyrazol-5-yl)-1-(methylsulfonyl)benzene] | 25 | 20 | 80 |  | 
CS(=O)(=O)c1ccc(-c2cc(C(F)(F)OCCCO)nn2-c2ccccc2)cc1 [Example 6e, 1-(3-(Difluoro(3-hydroxypropoxy)methyl)-1-phenylpyrazol-5-yl)-4-(methylsulfonyl)benzene] | 40 | 50 | 85 |  | 
COc1ccc(-n2nc(COCCCO[N+](=O)[O-])cc2-c2ccc(S(C)(=O)=O)cc2)cc1[N+](=O)[O-] [Example 10e, 1-(1-(4-Methoxy-3-nitrophenyl)-3-((3-(nitrooxy)propoxy)methyl)pyrazol-5-yl)-4-(methylsulfonyl)benzene] |  |  |  |  | inhibition at 100 µM (COX-1): 85%; inhibition at 1 µM (COX-2): 70%; inhibition at 10 µM (COX-2): 100%
Cc1ccc(-c2[nH]nc(COCCCO[N+](=O)[O-])c2-c2ccc(S(N)(=O)=O)cc2)cc1 [Example 20g, 4-(5-(4-Methylphenyl)-3-((3-(nitrooxy)propoxy)methyl)pyrazolyl)benzenesulfonamide] |  |  |  | 62 | 
CS(=O)(=O)c1ccc(-c2cc(C(=O)CCCCCO[N+](=O)[O-])nn2C2CCCCC2)cc1 [Example 22d] |  |  |  |  | COX-1 Inhibition (% at 100 μM) (COX-1; [1]): 75%; COX-2 Inhibition (% at 1 μM) (COX-2; [2]): 30%; COX-2 Inhibition (% at 10 μM) (COX-2; [3]): 30%
CS(=O)(=O)c1ccc(-c2cc(C(=O)CCCO)nn2-c2ccc(C(F)(F)F)cc2)cc1 [Example 23d, 4-Hydroxy-1-(5-(4-(methylsulfonyl)phenyl)-1-(4-(trifluoromethyl)-phenyl)pyrazol-3-yl)butan-1-one] | -20 | 0 | 10 |  | 
